Experimental data from patent publication US20240390414A1 (priority 2023, published 2024).

Experiments:
[1] = test system: human microglia and astrocytes; details: cited from earlier work
[2] = test system: differentiated human derived cell lines; details: glial cells activated by LPS/IFNγ or IFNγ and treated with STS; cited from earlier work
[3] = corn and wheat samples; cited from earlier work
[4] = 2018 study, cited from earlier work
[5] = Excerpt: With or without one or more of the following adjuvant cofactors given one to three times daily
I did Viome testing and must avoid some foods and take pre and pro biotics that they recommend.

[6] = cited from earlier work

O=S([O-])([O-])=S.[Na+].[Na+] [STS, Sodium thiosulfate]
H2S and GSH expression [1]: increases | neuroprotection [2]: significant enhancement of neuroprotection | levels of aflatoxins, ochratoxin A, and zearalenone [3]: significantly reduce the levels | toxicity of deoxynivalenol (DON) ([4]; Journal of Environmental Science and Health): reduced the toxicity | levels of oxidative stress and inflammation caused by DON exposure [4]: able to reduce the levels of oxidative stress and inflammation | changes observed (patient questionnaire comment) ([5]; in combination with sporanox): more aware and more present | stimming reduced ([5]; on day 1, one patient's comment): 80-90% | reduction in finger flicking and finger writing stimming ([5]; one patient's comment): 30 to 40%

O.O.O.O.O.O=S([O-])([O-])=S.[Na+].[Na+] [sodium thiosulfate pentahydrate]
treatment for calciphylaxis ([6]; Ackermann et al. 2007): effective treatment for calciphylaxis | treatment for vascular calcification ([6]; O'Neill 2008): effective treatment for vascular calcification | prevention of platinum-induced ototoxicity and nephrotoxicity ([6]; Skinner 1995): effective treatment to prevent platinum-induced ototoxicity and nephrotoxicity
